Legend:
[1] = target: T1, alpha2B adrenergic receptors (Homo sapiens, UniProt P18089); assay: Receptor Selection and Amplification Technology (RSAT) assay, alpha2B; assay type: cell-based; settings: for EC50: NA = not active at concentrations less than 10 micromolar, read-out: Alpha 2B EC50; for Alpha 2B intrinsic activity: fraction of maximal effect of standard full agonist brimonidine (UK14304)
T1 construct: expressed in transfected cells; host or cells: NIH-3T3
T1 sequence (P18089 1-450): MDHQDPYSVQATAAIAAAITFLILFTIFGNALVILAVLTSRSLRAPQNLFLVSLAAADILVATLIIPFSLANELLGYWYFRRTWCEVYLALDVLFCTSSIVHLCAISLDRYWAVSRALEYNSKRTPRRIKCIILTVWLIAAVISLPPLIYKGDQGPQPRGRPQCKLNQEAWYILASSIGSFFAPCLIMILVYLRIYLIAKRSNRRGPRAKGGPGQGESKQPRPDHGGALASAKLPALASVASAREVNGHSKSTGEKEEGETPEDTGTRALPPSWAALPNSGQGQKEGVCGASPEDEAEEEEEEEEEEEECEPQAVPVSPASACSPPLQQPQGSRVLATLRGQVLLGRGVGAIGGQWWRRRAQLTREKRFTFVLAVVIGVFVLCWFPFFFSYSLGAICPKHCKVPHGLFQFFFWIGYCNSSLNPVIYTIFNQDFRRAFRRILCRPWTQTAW
Text: (§1) The imidazole-2-thione compounds of the invention are agonists of alpha2 adrenergic receptors, particularly they tend to be specific or selective agonists of alpha2B and/or to a lesser extent alpha2C adrenergic receptors, in preference over alpha2A adrenergic receptors. […] Al., 1995, Pharmacol. Toxicol. 76, pp. 308-311 (incorporated herein by reference) and is also described below. Another reference pertinent to this assay is Conklin et al. (1993) Nature 363:274-6, also incorporated herein by reference.
(§2) Receptor Selection and Amplification Technology (RSAT) Assay
(§3) The RSAT assay measures a receptor-mediated loss of contact inhibition that results in selective proliferation of receptor-containing cells in a mixed population of confluent cells. The increase in cell number is assessed with an appropriate transfected marker gene such as β-galactosidase, the activity of which can be easily measured in a 96-well format. Receptors that activate the G protein, Gq, elicit this response. Alpha2 receptors, which normally couple to Gi, activate the RSAT response when coexpressed with a hybrid Gq protein that has a Gi receptor recognition domain, called Gq/i5.
(§4) NIH-3T3 cells are plated at a density of 2×10^6 cells in 15 cm dishes and maintained in Dulbecco's modified Eagle's medium supplemented with 10% calf serum. One day later, cells are cotransfected by calcium phosphate precipitation with mammalian expression plasmids encoding p-SV-β-galactosidase (5-10 μg), receptor (1-2 μg) and G protein (1-2 μg). 40 μg salmon sperm DNA may also be included in the transfection mixture. Fresh media is added on the following day and 1-2 days later, cells are harvested and frozen in 50 assay aliquots. Cells are thawed and 100 μl added to 100 μl aliquots of various concentrations of drugs in triplicate in 96-well dishes. Incubations continue 72-96 hr at 37 EC. After washing with phosphate-buffered saline, β-galactosidase enzyme activity is determined by adding 200 μl of the chromogenic substrate (consisting of 3.5 mM o-nitrophenyl-β-D-galactopyranoside and 0.5% nonidet P-40 in phosphate buffered saline), incubating overnight at 30 EC and measuring optical density at 420 nm. The absorbance is a measure of enzyme activity, which depends on cell number and reflects a receptor-mediated cell proliferation. The EC50 and maximal effect of each drug at each alpha2 receptor is determined. The efficacy or intrinsic activity is calculated as a ratio of the maximal effect of the drug to the maximal effect of a standard full agonist for each receptor subtype. Brimonidine, also called UK14304, the chemical structure of which is shown below, is used as the standard agonist for the alpha2A, alpha2B and alpha2C receptors.
(§5) The results of the RSAT assay with several exemplary compounds of the invention are disclosed in Table 1 above together with the chemical formulas of these examplary compounds. […] NA stands for “not active” at concentrations less than 10 micromolar. As is known EC50 is the concentration at which half of a given compound's maximal activity is observed.

[2] = target: T2, alpha2C adrenergic receptors (Homo sapiens, UniProt P18825); assay: Receptor Selection and Amplification Technology (RSAT) assay, alpha2C; assay type: cell-based; settings: for EC50: NA = not active at concentrations less than 10 micromolar, read-out: Alpha 2C EC50; for Alpha 2C intrinsic activity: fraction of maximal effect of standard full agonist brimonidine (UK14304)
T2 construct: expressed in transfected cells; host or cells: NIH-3T3
T2 sequence (P18825 1-462): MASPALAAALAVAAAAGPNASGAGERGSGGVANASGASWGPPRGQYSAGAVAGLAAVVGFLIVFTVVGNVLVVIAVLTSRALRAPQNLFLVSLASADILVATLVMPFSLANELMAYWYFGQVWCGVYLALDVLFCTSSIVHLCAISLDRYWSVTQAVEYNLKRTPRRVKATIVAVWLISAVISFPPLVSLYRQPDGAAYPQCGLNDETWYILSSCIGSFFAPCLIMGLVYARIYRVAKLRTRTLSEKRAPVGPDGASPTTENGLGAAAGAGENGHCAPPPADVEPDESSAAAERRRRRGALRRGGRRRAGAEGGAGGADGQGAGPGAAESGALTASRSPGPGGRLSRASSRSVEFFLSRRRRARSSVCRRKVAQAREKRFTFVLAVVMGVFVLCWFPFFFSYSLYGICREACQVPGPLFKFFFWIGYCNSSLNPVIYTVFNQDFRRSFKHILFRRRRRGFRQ
Text: as §1, §2, §3, §4, §5

EC50 [1] | Alpha 2B intrinsic activity [1] | EC50 [2] | Alpha 2C intrinsic activity [2] | Compound
24 nM | 0.93 | 137 nM | 0.42 | S=c1[nH]cc(CC2CCCc3ccccc32)[nH]1 (centres unmarked)
85 nM | 1.07 | 677 nM | 1.13 | CC1=CCCCC1Cc1c[nH]c(=S)[nH]1 (centres unmarked)
161 nM | 1.0 | 331 nM | 1.0 | CCC1=CCCCC1Cc1c[nH]c(=S)[nH]1 (centres unmarked)
578 nM | 1.1 | > 2000 nM | 0.57 | CC1Cc2ccccc2C1Cc1c[nH]c(=S)[nH]1 (centres unmarked)
33 nM | 1.01 | 1020 nM | 1.39 | CC1CC(Cc2c[nH]c(=S)[nH]2)c2ccccc21 (centres unmarked)
665 nM | 1.12 | > 2000 nM | 0.70 | S=c1[nH]cc(CC2C=CCCC2)[nH]1 (centres unmarked)
58 nM | 0.93 | 939 nM | 0.34 | Cc1cccc2c1CCC2Cc1c[nH]c(=S)[nH]1 (centres unmarked)
41 nM | 0.97 | 1110 nM | 0.52 | Fc1ccc2c(c1)CCC2Cc1c[nH]c(=S)[nH]1 (centres unmarked)
1590 nM | 0.68 | > 2000 nM | 0.46 | COc1ccc2c(c1)CCC2Cc1c[nH]c(=S)[nH]1 (centres unmarked)
158 nM | 0.85 |  | 0.62 | S=c1[nH]cc(CC2CCc3cc(Br)ccc32)[nH]1 (centres unmarked)
19 nM | 0.92 | 349 nM | 0.69 | Cc1ccc2c(c1)C(Cc1c[nH]c(=S)[nH]1)CC2 (centres unmarked)
30 nM | 0.94 | 139 nM | 1.0 | COc1ccc2c(c1)C(Cc1c[nH]c(=S)[nH]1)CC2 (centres unmarked)
260 nM | 1.0 | 662 nM | 0.75 | CC(C)CC1=CCCC1Cc1c[nH]c(=S)[nH]1 (centres unmarked)
422 nM | 1.11 | > 2000 nM | 0.57 | C=CC1=CCCC1Cc1c[nH]c(=S)[nH]1 (centres unmarked)
1620 nM | 0.88 | 2470 nM | 0.72 | CC=CC1=CCCC1Cc1c[nH]c(=S)[nH]1 (centres unmarked)
523 nM | 0.96 | > 2000 nM | 0.61 | CC1CC(Cc2c[nH]c(=S)[nH]2)C(=O)c2ccccc21 (centres unmarked)
29 nM | 0.96 | 66 nM | 0.47 | Cc1cccc2c1C(=O)C(Cc1c[nH]c(=S)[nH]1)CC2 (centres unmarked)
162 nM | 0.95 | 306 nM | 0.34 | O=C1c2c(CO)cccc2CCC1Cc1c[nH]c(=S)[nH]1 (centres unmarked)
172 nM | 0.76 | 107 nM | 0.35 | O=C1c2c(F)cccc2CCC1Cc1c[nH]c(=S)[nH]1 (centres unmarked)
7.5 nM | 0.95 | 64 nM | 0.56 | S=c1[nH]cc(C[C@H]2CCc3ccccc32)[nH]1
234 nM | 0.53 | 611 nM | 0.42 | S=c1[nH]cc(CC2CCC=C2c2cccs2)[nH]1 (centres unmarked)
103 nM | 0.97 | 40 nM | 0.52 | CCC1=C(c2ccc(F)cc2)C(Cc2c[nH]c(=S)[nH]2)CC1 (centres unmarked)
603 nM | 0.98 | 57 nM | 0.5 | CCCC1=C(c2ccc(F)cc2)C(Cc2c[nH]c(=S)[nH]2)CC1 (centres unmarked)
32 nM | 0.9 | 9 nM | 0.45 | Fc1ccc(C2=C(C3CC3)CCC2Cc2c[nH]c(=S)[nH]2)cc1 (centres unmarked)
22.5 nM | 0.97 | 34.5 nM | 0.82 | CC1=C(c2ccc(F)cc2)C(Cc2c[nH]c(=S)[nH]2)CCC1 (centres unmarked)
22 nM | 0.93 | 41 nM | 0.85 | CC1=C(c2ccc(C#N)cc2)C(Cc2c[nH]c(=S)[nH]2)CC1 (centres unmarked)
21 nM |  | 92 nM |  | CC1=C(c2ccc([N+](=O)[O-])cc2)C(Cc2c[nH]c(=S)[nH]2)CC1 (centres unmarked)
115 nM | 0.89 | 47 nM | 1.11 | CC1=C(c2cc(F)cc(F)c2)C(Cc2c[nH]c(=S)[nH]2)CC1 (centres unmarked)
51 nM | 0.78 | 22 nM | 0.95 | CC1=C(c2ccc(F)cc2)C(Cc2c[nH]c(=S)[nH]2)CC1 (centres unmarked)

Source: patent publication US7323485B2, “4-(substituted cycloalkylmethyl) imidazole-2-thiones, 4-(substituted cycloalkenylmethyl) imidazole-2-thiones, 4-(substituted cycloalkylmethyl) imidazol-2-ones and 4-(substituted cycloalkenylmethyl) imidazol-2-ones and related compounds” (Allergan, Inc., priority 2002, dated 2008)
